Reference: patent publication US8637536B2, “Pyrimidinone compounds for use in the treatment of diseases or conditions mediated by Lp-PLA2” (Glaxo Group Limited, priority 2010, dated 2014)
Where a name gives a salt, the structure may show the parent alone. Read-outs that look alike come from different tables or passages of the source.

Legend:
[1] = molecular target: T1, recombinant human Lp-PLA2 (Homo sapiens, UniProt Q13093); experiment: Recombinant human Lp-PLA2 assay (rhLp-PLA2, PED6 assay); assay type: biochemical
T1 sequence (Q13093 22-441): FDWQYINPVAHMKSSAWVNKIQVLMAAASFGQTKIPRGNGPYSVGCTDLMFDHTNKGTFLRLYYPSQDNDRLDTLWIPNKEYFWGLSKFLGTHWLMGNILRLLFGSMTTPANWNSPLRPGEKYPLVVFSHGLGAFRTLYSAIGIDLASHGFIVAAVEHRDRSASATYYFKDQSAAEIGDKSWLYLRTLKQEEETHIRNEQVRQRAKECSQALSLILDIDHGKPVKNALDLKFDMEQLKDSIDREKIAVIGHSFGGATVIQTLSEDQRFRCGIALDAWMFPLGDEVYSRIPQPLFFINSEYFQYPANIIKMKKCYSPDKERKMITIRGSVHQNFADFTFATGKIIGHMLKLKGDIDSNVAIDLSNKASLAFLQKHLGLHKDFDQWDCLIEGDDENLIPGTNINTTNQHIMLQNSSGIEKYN
Source text: (1) Recombinant Human Lp-PLA2 Assay (rhLp-PLA2) (Also Referred to as “PED6” Assay)
N-((6-(2,4-dinitrophenyl)amino)-hexanoyl)-2-(4,4-difluoro-5,7-dimethyl-4-bora-3a,4a-diaza-s-indacene-3-pentanoyl)-1-hexadecanoyl-sn-glycero-3-phosphoethanolamine, triethylammonium salt (PED6) is a commercially available fluorescently-labelled phospholipid, which is commercially available from Molecular Probes. There is a quenching […] position and a Bodipy fluorescein (FL) group in the sn2 position.
The PED6 assay was run as an unquenched 10 μL assay. Compounds source plate was prepared by making 1:3 (by volume) serial dilution of the compounds into pure DMSO on 384-well microplate. […] 5 μL of recombinant human Lp-PLA2 enzyme (2 nM rhLp-PLA2 in assay buffer of 50 mM HEPES, pH7.4, 150 mM NaCl, 1 mM CHAPS) was added to each well of the plate with compounds. Plates were centrifuged for 10 sec at 500 rpm. […] Plates were centrifuged for 10 sec at 500 rpm. Plate was covered to protect from light and incubated for 20 min at room temperature. […] PIC50 data, curve and QC analysis was conducted by using XL fit module in Excel.

[2] = molecular target: T2, Lp-PLA2 from plasma (pooled human plasma) (Homo sapiens, UniProt Q13093); experiment: Lp-PLA2 human plasma assay (Thio-PAF assay); assay type: biochemical; settings: text thresholds, read-out: pIC50 values in the thio-PAF assay (converted)
T2 construct: 8 μL pooled human plasma; from tissue; host or cells: pooled human plasma
T2 sequence (Q13093 22-441): T1 sequence (Q13093 22-441)
Source text: (3) Lipoprotein-Associated Phospholipase A2 (Lp-PLA2) Human Plasma Assay (Also Referred to as “Thio-PAF Assay”)
The human plasma assay utilizes a thioester analog of PAF (phosphatidylcholine), where hydrolysis yields to the formation of a phospholipid containing a free thiol group. The amount of thiol is quantitated continuously by reacting with CPM (7-diethylamino-3-(4′-maleimidylphenyl)-4-methylcoumarin), a maleimide which increases in fluoresence after Michael addition of thiols. This assay may detect the activity of Lp-PLA2 from plasma, as determined by specific inhibition by Lp-PLA2 inhibitors.
The thio-PAF assay was run as a quenched 15 μL assay. Compounds source plate was prepared by making 1:3 (by volume) serial dilution of the compounds into pure DMSO on 384-well microplate. 0.01 μL of compounds on compound source plate were transferred to 384 well Greiner 784076 (black) low-volume plates by ECHO liquid dispenser. 8 μL pooled human plasma, which was previously aliquoted and frozen, was added. Plates were centrifuged for 10 sec at 500 rpm. After 30 minutes preincubation, 2 μL of substrate (2.5 mM thio-PAF, 3.2 mM NEM (N-ethylmaleimide) [made fresh daily in DMSO], and 32 μM CPM [from a DMSO stock] in assay buffer of 50 mM HEPES, pH7.4, 150 mM NaCl, 1 mM CHAPS was added to 384 well Greiner 784076 (black) low-volume plates by BRAVO liquid handling station. Plates were centrifuged for 10 sec at 500 rpm. Plate was covered to protect from light and incubated for 2 min at room temperature. Reaction was quenched with 5 μL of 5% aqueous trifluoroacetic acid (TFA). Plates were covered to protect from light and incubated for 40 min at room temperature. Plates were read at ex: 380/em: 485 using-Envision microplate reader. PIC50 data, curve and QC analysis was conducted by using XLFit module in Excel.

[3] = text thresholds, upper limit for pIC50 in this assay is 9.3, read-out: pIC50 values in the PED6 assay (converted)

IC50 [1, 3] | IC50 [2] | IC50 ([1]; upper limit for pIC50 obtained in this PED6 assay is 9.3, read-out: rhLp-PLA2 (PED6 assay) (pIC50) (converted)) | Compound
≤ 10 nM | ≤ 100 nM | – | Cc1ncc(Cc2c[nH]c(NCCc3ccc(Oc4ccc(Cl)c(C(F)(F)F)c4)cc3)nc2=O)cn1 [E195, 2-{2-[4-(4-Chloro-3-trifluoromethyl-phenoxy)-phenyl]-ethylamino}-5-(2-methyl-pyrimidin-5-ylmethyl)-1H-pyrimidin-4-one]
≤ 1 nM | ≤ 1000 nM | – | COc1ncc(Cc2c[nH]c(SCc3ccc(Oc4ccc(Cl)c(C(F)(F)F)c4)c(C#N)c3)nc2=O)cn1 [E84, 2-{[4-chloro-3-(trifluoromethyl)phenyl]oxy}-5-{[(5-{[2-(methyloxy)-5-pyrimidinyl]methyl}-4-oxo-1,4-dihydro-2-pyrimidinyl)thio]methyl}benzonitrile]
≤ 10 nM | ≤ 1000 nM | – | COc1ncc(Cc2c[nH]c(OCCc3ccc(Oc4ccc(Cl)c(C(F)(F)F)n4)cc3)nc2=O)cn1 [E161, 2-(4-((5-chloro-6-(trifluoromethyl)pyridin-2-yl)oxy)phenethoxy)-5-((2-methoxypyrimidin-5-yl)methyl)pyrimidin-4(1H)-one]
≤ 1 nM | ≤ 100 nM | – | COc1ncc(Cc2c[nH]c(OCCc3ccc(Oc4ccc(Cl)c(C(F)(F)F)c4)c(F)c3)nc2=O)cn1 [E172, 2-{[2-(4-{[4-chloro-3-(trifluoromethyl)phenyl]oxy}-3-fluorophenyl)ethyl]oxy}-5-{[2-(methyloxy)-5-pyrimidinyl]methyl}-4(1H)-pyrimidinone]
≤ 1 nM | ≤ 100 nM | – | COc1ncc(Cc2cn(C)c(SCc3ccc(Oc4ccc(Cl)c(C(F)(F)F)c4)cc3)nc2=O)cn1 [E75, 2-{[(4-{[4-chloro-3-(trifluoromethyl)phenyl]oxy}phenyl)methyl]thio}-1-methyl-5-{[2-(methyloxy)-5-pyrimidinyl]methyl}-4(1H)-pyrimidinone]
≤ 10 nM | ≤ 100 nM | – | O=c1nc(NCCc2ccc(Oc3ccc(C(F)(F)F)cc3)cc2)[nH]cc1Cc1cncnc1 [E204]
≤ 10 nM | ≤ 100 nM | – | O=c1nc(NCCc2ccc(Oc3ccc(Cl)c(C(F)(F)F)c3)cc2)[nH]cc1Cc1ccnnc1 [E214, 2-{2-[4-(4-chloro-3-trifluoromethyl-phenoxy)-phenyl]ethylamino}-5-pyridazin-4-ylmethyl-1H-pyrimidin-4-one]
≤ 10 nM | ≤ 100 nM | – | Cc1ccc(Cc2c[nH]c(NCCc3ccc(Oc4ccc(Cl)c(C(F)(F)F)c4)cc3)nc2=O)cn1 [E210, 2-{2-[4-(4-Chloro-3-trifluoromethyl-phenoxy)-phenyl]-ethylamino}-5-(6-methyl-pyridin-3-ylmethyl)-1H-pyrimidin-4-one]
– | ≤ 1000 nM | – | Cc1ncc(Cc2c[nH]c(NCCc3ccc(Oc4ccc(Cl)c(C(F)(F)F)c4)c(C#N)c3)nc2=O)cn1 [E211, 2-(4-Chloro-3-trifluoromethyl-phenoxy)-5-{2-[5-(2-methyl-pyrimidin-5-ylmethyl)-4-oxo-1,4-dihydro-pyrimidin-2-ylamino]-ethyl}-benzonitrile]
– | ≤ 100 nM | – | COc1ncc(Cc2c[nH]c(NCCc3ccc(Oc4ccc(Cl)c(C(F)(F)F)c4)cc3)nc2=O)cn1 [E9, 2-{[2-(4-{[4-Chloro-3-(trifluoromethyl)phenyl]oxy}phenyl)ethyl]amino}-5-{[2-(methyloxy)-5-pyrimidinyl]methyl}-4(1H)-pyrimidinone]
– | ≤ 1000 nM | – | COc1ncc(Cc2c[nH]c(NCCc3ccc(Oc4ccc(C(F)(F)F)cn4)cc3)nc2=O)cn1 [E186, 5-(2-methoxy-pyrimidin-5-ylmethyl)-2-{2-[4-(5-trifluoromethyl-pyridin-2-yloxy)phenyl]-ethylamino}-1H-pyrimidin-4-one]

Further lines, the molecule ahead of its results:

Compound | IC50 [1, 3] | IC50 [2] | IC50 ([1]; upper limit for pIC50 obtained in this PED6 assay is 9.3, read-out: rhLp-PLA2 (PED6 assay) (pIC50) (converted))
CN(CCc1ccc(Oc2ccc(Cl)c(C(F)(F)F)c2)cc1)c1nc(=O)c(Cc2cncnc2)cn1C [E196, 2-({2-[4-(4-Chloro-3-trifluoromethyl-phenoxy)-phenyl]-ethyl}-methyl-amino)-1-methyl-5-pyrimidin-5-ylmethyl-1H-pyrimidin-4-one] | ≤ 10 nM | ≤ 1000 nM | –
Cn1cc(Cc2cncnc2)c(=O)nc1SCc1ccc(Oc2cccc(C(F)(F)F)c2)c(C#N)c1 [E97, 5-({[1-methyl-4-oxo-5-(5-pyrimidinylmethyl)-1,4-dihydro-2-pyrimidinyl]thio}methyl)-2-{[3-(trifluoromethyl)phenyl]oxy}benzonitrile] | ≤ 1 nM | ≤ 100 nM | –
Cn1cc(Cc2cn(C)c(SCc3ccc(Oc4cccc(C(F)(F)F)c4)c(C#N)c3)nc2=O)cn1 [E95, 5-(((1-methyl-5-((1-methyl-1H-pyrazol-4-yl)methyl)-4-oxo-1,4-dihydropyrimidin-2-yl)thio)methyl)-2-(3-(trifluoromethyl)phenoxy)benzonitrile, trifluoroacetic acid salt] | ≤ 1 nM | ≤ 100 nM | –
COc1ncc(Cc2c[nH]c(OCCc3ccc(Oc4cnc(C(F)(F)F)nc4)cc3)nc2=O)cn1 [E143, 5-{[2-(methyloxy)-5-pyrimidinyl]methyl}-2-{[2-(4-{[2-(trifluoromethyl)-5-pyrimidinyl]oxy}phenyl)ethyl]oxy}-4(1H)-pyrimidinone] | ≤ 10 nM | ≤ 1000 nM | –
Cc1noc(Cc2c[nH]c(OCCc3ccc(Oc4ccc(Cl)c(C(F)(F)F)c4)cc3)nc2=O)n1 [E133, 2-{[2-(4-{[4-chloro-3-(trifluoromethyl)phenyl]oxy}phenyl)ethyl]oxy}-5-[(3-methyl-1,2,4-oxadiazol-5-yl)methyl]-4(1H)-pyrimidinone] | ≤ 10 nM | ≤ 1000 nM | 3.16 nM
Cn1cc(Cc2cncnc2)c(=O)nc1OCCc1ccc(Oc2ccc(Cl)c(C(F)(F)F)c2)c(F)c1 [E141, 2-{[2-(4-{[4-chloro-3-(trifluoromethyl)phenyl]oxy}-3-fluorophenyl)ethyl]oxy}-1-methyl-5-(5-pyrimidinylmethyl)-4(1H)-pyrimidinone] | ≤ 1 nM | ≤ 100 nM | –
Cn1cc(Cc2c[nH]c(OCCc3ccc(Oc4cc(Cl)cc(C(F)(F)F)c4)cc3)nc2=O)cn1 [E162, 2-{[2-(4-{[3-chloro-5-(trifluoromethyl)phenyl]oxy}phenyl)ethyl]oxy}-5-[(1-methyl-1H-pyrazol-4-yl)methyl]-4(1H)-pyrimidinone] | ≤ 10 nM | ≤ 100 nM | –
Cn1cc(Cc2cncnc2)c(=O)nc1SCc1ccc(Oc2ccc(Cl)c(C(F)(F)F)c2)c(C#N)c1 [E79, 2-{[4-chloro-3-(trifluoromethyl)phenyl]oxy}-5-({[1-methyl-4-oxo-5-(5-pyrimidinylmethyl)-1,4-dihydro-2-pyrimidinyl]thio}methyl)benzonitrile] | – | ≤ 100 nM | –
Cn1cc(Cc2cncnc2)c(=O)nc1SCc1ccc(Oc2ccc(F)c(C(F)(F)F)c2)c(C#N)c1 [E88, 2-{[4-fluoro-3-(trifluoromethyl)phenyl]oxy}-5-({[1-methyl-4-oxo-5-(5-pyrimidinylmethyl)-1,4-dihydro-2-pyrimidinyl]thio}methyl)benzonitrile] | – | ≤ 100 nM | –
Cc1ncc(Cc2c[nH]c(NCCc3ccc(Oc4ccc(C(F)(F)F)cn4)c(C#N)c3)nc2=O)cn1 [E203, 5-{2-[5-(2-Methyl-pyrimidin-5-ylmethyl)-4-oxo-1,4-dihydro-pyrimidin-2-ylamino]-ethyl}-2-(5-trifluoromethyl-pyridin-2-yloxy)-benzonitrile] | – | ≤ 100 nM | –
